Measured values published in US7413536B1, “Substrates and screening methods for transport proteins” (XenoPort, Inc., priority 1999, dated 2008).

Tests used:
[1] = target: T1, rat intestinal bile acid transporter (Rattus norvegicus, UniProt Q62633); assay: Substrate activity for the intestinal bile acid transporter; type: cell-based
T1 sequence (Q62633 1-348): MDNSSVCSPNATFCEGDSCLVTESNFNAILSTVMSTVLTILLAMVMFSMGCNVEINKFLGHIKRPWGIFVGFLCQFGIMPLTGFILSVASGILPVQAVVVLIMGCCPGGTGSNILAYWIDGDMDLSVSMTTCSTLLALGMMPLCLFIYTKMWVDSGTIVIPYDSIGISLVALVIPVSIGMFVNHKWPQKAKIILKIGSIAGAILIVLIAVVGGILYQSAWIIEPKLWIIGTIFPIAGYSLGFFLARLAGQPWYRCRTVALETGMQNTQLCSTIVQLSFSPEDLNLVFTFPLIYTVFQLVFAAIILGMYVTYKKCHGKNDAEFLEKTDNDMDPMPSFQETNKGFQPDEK

Oral absorption in rat = type: in vivo

| oral absorption (Oral absorption in rat; rat) | Molecule | substrate for the rat intestinal bile acid transporter [1] | hydrolysis upon oral absorption (uncharacterized amidase activity) releasing parent drug (Oral absorption in rat) |
| --- | --- | --- | --- |
|  | COc1ccc2cc(C(C)C(=O)NCCCCC(NC(=O)CCC(C)C3CCC4C5C(O)CC6CC(O)CCC6(C)C5CC(O)C34C)C(=O)O)ccc2c1 (stereo not shown) [Cholyl-Lysine-(ε-Naproxen)-OH] | retains activity | hydrolyzed |
| effectively absorbed orally | cholyl-lys-(ε-NBD)-OH [cholyl-L-Lys-(ε-NBD)-OH] | substrate |  |
